Reference: ChEMBL document CHEMBL5352389, “Design and synthesis of chromone-based monoamine oxidase B inhibitors with improved drug-like properties” (Eur J Med Chem, 2022)

What was measured:
[1] = target: T1, Amine oxidase [flavin-containing] A (Homo sapiens, UniProt P21397); assay: Inhibition of human MAO-A using p-tyramine as substrate at 10 uM incubated for 15 mins by Amplex red and horseradish peroxidase based fluorescence assay; settings: 0.25 h
T1 sequence (P21397 whole entry): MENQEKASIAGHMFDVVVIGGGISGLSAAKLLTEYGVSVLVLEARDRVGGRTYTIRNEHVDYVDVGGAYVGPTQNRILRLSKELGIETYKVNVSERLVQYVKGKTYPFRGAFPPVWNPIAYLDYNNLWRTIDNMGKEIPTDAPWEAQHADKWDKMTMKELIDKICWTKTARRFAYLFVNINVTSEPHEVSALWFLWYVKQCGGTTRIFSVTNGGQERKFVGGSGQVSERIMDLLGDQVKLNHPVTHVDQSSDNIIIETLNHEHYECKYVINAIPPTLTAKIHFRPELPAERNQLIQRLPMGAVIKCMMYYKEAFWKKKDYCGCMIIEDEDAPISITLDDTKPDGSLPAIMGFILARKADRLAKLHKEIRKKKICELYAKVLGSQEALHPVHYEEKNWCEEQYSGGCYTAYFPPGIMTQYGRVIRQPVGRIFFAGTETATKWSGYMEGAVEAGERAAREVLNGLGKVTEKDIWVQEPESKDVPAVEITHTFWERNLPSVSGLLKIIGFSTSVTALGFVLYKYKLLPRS

[2] = target: T2, Amine oxidase [flavin-containing] B (Homo sapiens, UniProt P27338); assay: Inhibition of human MAO-B using p-tyramine as substrate incubated for 15 mins by Amplex red and horseradish peroxidase based fluorescence assay
T2 sequence (P27338 whole entry): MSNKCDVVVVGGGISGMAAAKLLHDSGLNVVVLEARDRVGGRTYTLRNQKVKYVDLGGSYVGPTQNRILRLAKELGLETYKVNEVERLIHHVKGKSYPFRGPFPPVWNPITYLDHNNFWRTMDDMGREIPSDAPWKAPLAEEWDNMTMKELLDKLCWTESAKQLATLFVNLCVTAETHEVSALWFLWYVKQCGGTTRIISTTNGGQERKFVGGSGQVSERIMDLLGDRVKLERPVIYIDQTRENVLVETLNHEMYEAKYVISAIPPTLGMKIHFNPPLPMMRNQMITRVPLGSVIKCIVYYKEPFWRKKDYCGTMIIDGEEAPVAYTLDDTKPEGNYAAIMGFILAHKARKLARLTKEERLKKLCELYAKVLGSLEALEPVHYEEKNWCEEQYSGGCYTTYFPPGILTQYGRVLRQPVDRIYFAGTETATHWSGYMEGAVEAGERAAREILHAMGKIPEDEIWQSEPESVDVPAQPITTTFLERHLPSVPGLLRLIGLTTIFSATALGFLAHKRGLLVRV

Homo sapiens = species: Homo sapiens; assay: Selectivity index, ratio of IC50 for human MAO-A to IC50 for human MAO-B
[3] = Cytotoxicity against human SH-SY5Y cells assessed as cell viability by measuring metabolic activity upto 10 uM incubated for 24 hrs by resazurin dye based assay relative to control; format: toxicity; settings: read-out: Activity
SH-SY5Y [4] = assay: Iron(III) chelating activity in FeNTA-treated human SH-SY5Y cells assessed as cell viability by measuring lysosomal activity at 1 to 10 uM measured after 24 hrs by neutral red uptake assay (reference value: 66.5 +/- […] %); format: cell-based; settings: dose 1-10 µM
[5] = Cytotoxicity against human SH-SY5Y cells assessed as cell viability by measuring lysosomal activity upto 10 uM incubated for 24 hrs by neutral red uptake assay relative to control; format: toxicity, cell-based; settings: read-out: Activity
[6] = target: T1, Amine oxidase [flavin-containing] A; assay: Inhibition of human MAO-A using p-tyramine as substrate incubated for 15 mins by Amplex red and horseradish peroxidase based fluorescence assay
[7] = target: T3, MAO-A (amine oxidase [flavin-containing] A) (Homo sapiens, UniProt P21397); assay: Inhibition of human MAO-A using p-tyramine as substrate incubated for 15 mins by Amplex red and horseradish peroxidase based fluorescence assay relative to control; settings: human MAO-A enzyme, probe p-tyramine
T3 sequence (P21397 whole entry): T1 sequence (P21397 whole entry)

SH-SY5Y [8] = assay: Iron(III) chelating activity in FeNTA-treated human SH-SY5Y cells assessed as cell viability by measuring lysosomal activity at 10 uM measured after 24 hrs by neutral red uptake assay (reference value: 66.5 +/- […] %); format: cell-based
[9] = target: T2, Amine oxidase [flavin-containing] B; assay: Inhibition of human MAO-B using p-tyramine as substrate at 10 uM incubated for 15 mins by Amplex red and horseradish peroxidase based fluorescence assay; settings: 0.25 h

| Structure (SMILES) | inhibition (INH) [1] | IC50 [2] [nM] | Ratio IC50 (Homo sapiens) | other results |
| --- | --- | --- | --- | --- |
| O=C(Nc1ccccc1)c1cc(=O)c2cc(O)ccc2o1 | Not Active | 31.3 | > 319 | – |
| O=C(Nc1ccccc1)c1coc2ccc(O)cc2c1=O | Not Active | 240 | > 42 | – |
| O=C(Nc1ccc(Cl)cc1)c1coc2cccc(O)c2c1=O | Not Active | 8.3 | > 1200 | viability at 24 h, up to 10 µM [3]: ≥ 94.4%; Activity (SH-SY5Y [4]): 74.4%; viability at 24 h, up to 10 µM [5]: ≥ 94.4% |
| COc1ccc2occ(C(=O)Nc3ccc(O)cc3)c(=O)c2c1 | Not Active | – | > 15 | – |
| Cc1ccc(NC(=O)c2cc(=O)c3cc(O)ccc3o2)cc1C | – | 29.1 | 116 | IC50 [6]: 3370 nM |
| O=C(Nc1cccc(Cl)c1)c1coc2ccc(O)cc2c1=O | Not Active | 29.8 | > 336 | – |
| O=C(Nc1ccc(Cl)cc1)c1coc2ccc(O)cc2c1=O | – | 97.2 | 64 | IC50 [6]: 6190 nM |
| C[C@H](NCc1ccc(OCc2cccc(F)c2)cc1)C(N)=O [SAFINAMIDE] | – | – | – | inhibition at 0.25 h [7]: 23.7% |
| O=C(Nc1cccc(Cl)c1)c1cc(=O)c2cc(O)ccc2o1 | – | 68.9 | 130 | IC50 [6]: 9000 nM |
| Cc1ccc(NC(=O)c2coc3cccc(O)c3c2=O)cc1 | Not Active | 15.7 | > 637 | viability at 24 h, up to 10 µM [3]: ≥ 94.4%; Activity (SH-SY5Y [4]): 74.4%; viability at 24 h, up to 10 µM [5]: ≥ 94.4% |
| Cc1ccc(NC(=O)c2coc3ccc(O)cc3c2=O)cc1C | Not Active | 262 | > 38 | – |
| COc1ccc2occ(C(=O)Nc3ccc(C)cc3)c(=O)c2c1 | Not Active | – | > 48 | – |
| O=C(Nc1ccccc1)c1coc2cccc(O)c2c1=O | Not Active | 13 | > 769 | viability at 24 h, up to 10 µM [3]: ≥ 94.4%; viability at 24 h, up to 10 µM [5]: ≥ 94.4%; Activity (SH-SY5Y [8]): 74.4% |
| COc1ccc2oc(C(=O)Nc3cccc(Cl)c3)cc(=O)c2c1 | Not Active | – | – | inhibition (INH) [9]: Not Active |
| COc1ccc2oc(C(=O)Nc3ccccc3)cc(=O)c2c1 | Not Active | – | – | inhibition (INH) [9]: Not Active |
| COc1ccc2oc(C(=O)Nc3ccc(C)cc3)cc(=O)c2c1 | – | – | > 0.061 | inhibition (INH) [9]: Not Active; IC50 [6]: 607 nM |

| Structure (SMILES) | inhibition (INH) [1] | IC50 [2] [nM] | Ratio IC50 (Homo sapiens) | other results |
| --- | --- | --- | --- | --- |
| COc1ccc2oc(C(=O)Nc3ccc(C)c(C)c3)cc(=O)c2c1 | Not Active | – | – | inhibition (INH) [9]: Not Active |
| O=C(Nc1ccc(O)cc1)c1coc2cccc(O)c2c1=O | Not Active | 598 | > 17 | – |
| Cc1ccc(NC(=O)c2coc3cccc(O)c3c2=O)cc1C | Not Active | 15.4 | > 649 | viability at 24 h, up to 10 µM [3]: ≥ 94.4%; Activity (SH-SY5Y [4]): 74.4%; viability at 24 h, up to 10 µM [5]: ≥ 94.4% |
| O=C(Nc1ccc(O)cc1)c1coc2ccc(O)cc2c1=O | Not Active | 4830 | > 2.1 | – |
| O=C(Nc1ccc(O)cc1)c1cc(=O)c2cc(O)ccc2o1 | Not Active | 1030 | > 9.7 | – |
| COc1ccc2oc(C(=O)Nc3ccc(Cl)cc3)cc(=O)c2c1 | Not Active | – | – | inhibition (INH) [9]: Not Active |
| Cc1ccc(NC(=O)c2coc3ccc(O)cc3c2=O)cc1 | Not Active | 344 | > 29 | – |
| COc1ccc2occ(C(=O)Nc3cccc(Cl)c3)c(=O)c2c1 | Not Active | 6.8 | > 1470 | viability at 24 h, up to 10 µM [3]: ≥ 94.4%; viability at 24 h, up to 10 µM [5]: ≥ 94.4% |
| COc1ccc2occ(C(=O)Nc3ccc(C)c(C)c3)c(=O)c2c1 | Not Active | 28.4 | > 352 | – |
| O=C(Nc1ccc(Cl)cc1)c1cc(=O)c2cc(O)ccc2o1 | Not Active | 14.3 | > 700 | viability at 24 h, up to 10 µM [3]: ≥ 94.4%; viability at 24 h, up to 10 µM [5]: ≥ 94.4% |
| COc1ccc2occ(C(=O)Nc3ccc(Cl)cc3)c(=O)c2c1 | Not Active | – | > 970 | viability at 24 h, up to 10 µM [3]: ≥ 94.4%; viability at 24 h, up to 10 µM [5]: ≥ 94.4% |
| COc1ccc2oc(C(=O)Nc3ccc(O)cc3)cc(=O)c2c1 | Not Active | – | – | inhibition (INH) [9]: Not Active |
| COc1ccc2occ(C(=O)Nc3ccccc3)c(=O)c2c1 | Not Active | – | > 239 | – |
| Cc1ccc(NC(=O)c2cc(=O)c3cc(O)ccc3o2)cc1 | Not Active | 55.1 | > 181 | – |
| O=C(Nc1cccc(Cl)c1)c1coc2cccc(O)c2c1=O | Not Active | 25 | > 400 | viability at 24 h, up to 10 µM [3]: ≥ 94.4%; Activity (SH-SY5Y [4]): 74.4%; viability at 24 h, up to 10 µM [5]: ≥ 94.4% |
